Where two headings read alike, the source gives them in different places.
Tests used:
in vivo = assay: in vivo; parameters: species or system mice; conditions: mouse, 24 h p.i.
Protocol: For biodistribution studies, the ^177Lu-labelled compound (approx. 2–3 MBq, 100 pmol) was injected into a lateral tail vein (n = 4) of anesthetised (2% isoflurane) AR42J tumour-bearing CB-17-SCID mice. At 24 h post-injection (p.i.), the mice were euthanised. Thereafter, the pertinent organs were removed, weighed and measured using a γ-counter.
For all competition studies, 2.90 mg/kg (40 nmol) of [^natLu]Lu-DOTA-MGS5 (10^−3 M in phosphate-buffered saline) were co-administered.
Figure S4. (a) Biodistribution of [177Lu]Lu-DOTA-rhCCK-16 (100 pmol) co-injected with [natLu]Lu-DOTA-MGS5
(40 nmol) in selected organs (%ID/g) at 24 h p.i. in AR42J tumour-bearing CB17-SCID mice. Data is expressed as
mean ± SD (n = 2). (b) Representative µSPECT/CT images of [177Lu]Lu-DOTA-rhCCK-16 co-injected with [natLu]Lu-
DOTA-MGS5 (40 nmol) at 24 h p.i. in AR42J tumour-bearing CB17- SCID mice.
(1 picture or pasted object on this page, not shown here)

[1] = first patient studies; cited from earlier work

Compound	tissue uptake at 24 h (in vivo; CB17-SCID, iv, total radioactivity, competition, read-out: Activity levels in the stomach, co-injection of excess [natLu]Lu-DOTA-MGS5)	tissue uptake at 24 h (in vivo; CB17-SCID, iv, total radioactivity, competition, read-out: activity levels in the tumour, co-injection of excess [natLu]Lu-DOTA-MGS5)	tissue uptake at 24 h (in vivo; 100 pmol + 40 nmol [natLu]Lu-DOTA-MGS5, n = 2, read-out: Biodistribution competition studies, Adrenal)	tissue uptake at 24 h (in vivo; 100 pmol + 40 nmol [natLu]Lu-DOTA-MGS5, n = 2, read-out: Biodistribution competition studies, Blood)	tissue uptake at 24 h (in vivo; 100 pmol + 40 nmol [natLu]Lu-DOTA-MGS5, n = 2, read-out: Biodistribution competition studies, Bone)	tissue uptake at 24 h (in vivo; 100 pmol + 40 nmol [natLu]Lu-DOTA-MGS5, n = 2, read-out: Biodistribution competition studies, Heart)	tissue uptake at 24 h (in vivo; 100 pmol + 40 nmol [natLu]Lu-DOTA-MGS5, n = 2, read-out: Biodistribution competition studies, Intestine)	tissue uptake at 24 h (in vivo; 100 pmol + 40 nmol [natLu]Lu-DOTA-MGS5, n = 2, read-out: Biodistribution competition studies, Kidney)	tissue uptake at 24 h (in vivo; 100 pmol + 40 nmol [natLu]Lu-DOTA-MGS5, n = 2, read-out: Biodistribution competition studies, Liver)	tissue uptake at 24 h (in vivo; 100 pmol + 40 nmol [natLu]Lu-DOTA-MGS5, n = 2, read-out: Biodistribution competition studies, Lung)	tissue uptake at 24 h (in vivo; 100 pmol + 40 nmol [natLu]Lu-DOTA-MGS5, n = 2, read-out: Biodistribution competition studies, Muscle)	tissue uptake at 24 h (in vivo; 100 pmol + 40 nmol [natLu]Lu-DOTA-MGS5, n = 2, read-out: Biodistribution competition studies, Pancreas)	tissue uptake at 24 h (in vivo; 100 pmol + 40 nmol [natLu]Lu-DOTA-MGS5, n = 2, read-out: Biodistribution competition studies, Spleen)	tissue uptake at 24 h (in vivo; 100 pmol + 40 nmol [natLu]Lu-DOTA-MGS5, n = 2, read-out: Biodistribution competition studies, Stomach)	tissue uptake at 24 h (in vivo; 100 pmol + 40 nmol [natLu]Lu-DOTA-MGS5, n = 2, read-out: Biodistribution competition studies, Tumour)	median (interquartile range) absorbed tumour dose [1]
CCCC[C@H](NC(=O)[C@H](Cc1c[nH]c2ccccc12)NC(=O)CNC(=O)[C@H](Cc1ccc(O)cc1)NC(=O)[C@H](C)NC(=O)CC[C@@H](NC(=O)CC[C@@H](NC(=O)CC[C@@H](NC(=O)CC[C@@H](NC(=O)CC[C@@H](NC(=O)CC[C@@H](NC(=O)[C@@H](CNC(=O)c1ccc([Si](F)(C(C)(C)C)C(C)(C)C)cc1)NC(=O)CC[C@H](C(=O)O)N1CCN(CC(=O)O)CCN(CC(=O)O)CCN(CC(=O)O)CC1)C(=O)O)C(=O)O)C(=O)O)C(=O)O)C(=O)O)C(=O)O)C(=O)N[C@@H](CC(=O)O)C(=O)N[C@@H](Cc1ccccc1)C(N)=O [[nat/177Lu]Lu-(R)-DOTAGA-rhCCK-16, metal not drawn]	< 0.3 %ID/g	< 1 %ID/g	0.4 ± 0.11 %ID/g	0.05 %ID/g	0.24 ± 0.04 %ID/g	0.13 ± 0.01 %ID/g	0.16 ± 0.03 %ID/g	105 ± 21 %ID/g	2.31 ± 0.66 %ID/g	2.59 ± 1.27 %ID/g	0.06 ± 0.04 %ID/g	0.2 ± 0.01 %ID/g	1.73 ± 0.01 %ID/g	0.15 ± 0.04 %ID/g	0.91 ± 0.04 %ID/g	
CCCC[C@H](NC(=O)[C@H](Cc1c[nH]c2ccccc12)NC(=O)CNC(=O)[C@H](Cc1ccc(O)cc1)NC(=O)[C@H](C)NC(=O)[C@@H](CCC(=O)O)NC(=O)[C@@H](CCC(=O)O)NC(=O)[C@@H](CCC(=O)O)NC(=O)[C@@H](CCC(=O)O)NC(=O)[C@@H](CCC(=O)O)NC(=O)[C@@H](CCC(=O)O)NC(=O)CN1CCN(CC(=O)O)CCN(CC(=O)O)CCN(CC(=O)O)CC1)C(=O)N[C@@H](CC(=O)O)C(=O)N[C@@H](Cc1ccccc1)C(N)=O [[nat/177Lu]Lu-DOTA-PP-F11N, metal not drawn, reference compound]																0.88 Gy/GBq

From article PMC9783573, “Introduction of a SiFA Moiety into the D-Glutamate Chain of DOTA-PP-F11N Results in Radiohybrid-Based CCK-2R-Targeted Compounds with Improved Pharmacokinetics In Vivo” (Pharmaceuticals, 2022)
